Drawing on patent publication US11897851B2, “Heterocyclic GLP-1 agonists” (Gasherbrum Bio, Inc., priority 2021, dated 2024), this text covers EC50 for 24 compounds.

A value given as a limit tells only on which side of the number the result lay.

The target of the assay is T1, GLP-1 Receptor (Homo sapiens, UniProt P43220).
T1 construct: host or cells: HEK293/GLP1R/CRE-LUC (HEK293/CRE-Luc stably expressing the GLP-1 receptor)
T1 sequence (P43220 24-463, species assumed): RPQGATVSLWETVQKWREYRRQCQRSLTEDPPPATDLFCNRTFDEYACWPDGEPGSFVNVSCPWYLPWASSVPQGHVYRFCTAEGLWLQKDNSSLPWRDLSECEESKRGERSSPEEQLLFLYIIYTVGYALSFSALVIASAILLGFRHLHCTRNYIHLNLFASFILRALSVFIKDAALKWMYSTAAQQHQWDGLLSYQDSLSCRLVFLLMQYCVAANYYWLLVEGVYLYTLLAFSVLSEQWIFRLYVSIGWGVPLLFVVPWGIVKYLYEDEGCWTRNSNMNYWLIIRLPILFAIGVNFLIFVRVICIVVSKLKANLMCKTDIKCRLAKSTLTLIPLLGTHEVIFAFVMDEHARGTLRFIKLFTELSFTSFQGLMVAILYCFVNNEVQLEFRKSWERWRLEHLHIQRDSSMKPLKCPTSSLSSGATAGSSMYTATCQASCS
Briefly: GLP-1R agonist cAMP stimulation assay (HEK293/GLP1R/CRE-LUC cells, Cisbio cAMP dynamic 2 kit).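 Further: compounds tested in half-log serial dilution, cAMP detected with cAMP-d2 and anti-cAMP cryptate antibody reagents after 1 h at room temperature.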 The assay is classed as cell-based. Particulars: HEK293/CRE-Luc cell line stably expressing the GLP-1 Receptor; 1000 cells/well; 30 min at 37° C.; 0.5 mM IBMX, 0.1% BSA; read-out: GLP1R cAMP Stimulation DR: EC50.
On to `C/C(=C\c1cnc(CN2CCC(c3cccc4c3O[C@@](C)(c3ccc(Cl)cc3F)O4)CC2)n1C[C@@H]1CCO1)C(=O)O` (single isomer, unassigned) [Compound 131a], for which the EC50 stood at 0.099 nM.

Regarding `C/C(=C\c1cnc(CN2CCC(c3cccc4c3O[C@](C)(c3ccc(Cl)cc3F)O4)CC2)n1C[C@@H]1CCO1)C(=O)O` (single isomer, unassigned) [Compound 131b], the EC50 was found to be 8.7 nM.

Consider `CC1(C)C[C@@H](Cn2c(/C=C/C(=O)O)cnc2CN2CCC(c3cccc4c3OC(C)(c3ccc(Cl)cc3F)O4)CC2)CO1` (single isomer, unassigned) [Compound 171a], for which the EC50 turned out to be 10 nM.

Consider `C[C@]1(c2ccc(Cl)cc2F)Oc2cccc(C3CCN(Cc4ncc(/C=C/C(=O)O)n4C[C@@H]4CCS4(=O)=O)CC3)c2O1` (single isomer, unassigned) [Compound 173a], for which the EC50 is 0.0069 nM.

On to `C[C@]1(c2ccc(Cl)cc2F)Oc2cccc(C3CCN(Cc4ncc(/C=C/C(=O)O)n4C[C@H]4CCS4(=O)=O)CC3)c2O1` (single isomer, unassigned) [Compound 173b], for which the EC50 turned out to be 0.0014 nM.

In the case of `Cn1c(C(=O)O)cnc1CN1CCC(c2cccc(OCc3ccc(Cl)cc3F)n2)CC1` [Compound 101, 2-((4-(6-((4-chloro-2-fluorobenzyl)oxy)pyridin-2-yl)piperidin-1-yl)methyl)-1-methyl-1H-imidazole-5-carboxylic acid], the EC50 was 227 nM.

In the case of `O=C(O)CCc1cnc(CN2CCC(c3cccc(OCc4ccc(Cl)cc4F)n3)CC2)n1C[C@@H]1CCO1` [Compound 102a, (S)-3-(2-((4-(6-((4-chloro-2-fluorobenzyl)oxy)pyridin-2-yl)piperidin-1-yl)methyl)-1-(oxetan-2-ylmethyl)-1H-imidazol-5-yl)propanoic acid], the EC50 amounted to 1.6 nM.

Turning to `O=C(O)/C=C/c1cnc(CN2CCC(c3cccc(OCc4ccc(Cl)cc4F)n3)CC2)n1C[C@@H]1CCO1` [Compound 103a, (S,E)-3-(2-((4-(6-((4-chloro-2-fluorobenzyl)oxy)pyridin-2-yl)piperidin-1-yl)methyl)-1-(oxetan-2-ylmethyl)-1H-imidazol-5-yl)acrylic acid], the EC50 came to 0.093 nM.

Take `Cn1c(/C=C/C(=O)O)cnc1CN1CCC(c2cccc(OCc3ccc(Cl)cc3F)n2)CC1` [Compound 104, (E)-3-(2-((4-(6-((4-chloro-2-fluorobenzyl)oxy)pyridin-2-yl)piperidin-1-yl)methyl)-1-methyl-1H-imidazol-5-yl)acrylic acid]: the EC50 came to 3.45 nM.

As to `Cn1c(-c2nn[nH]n2)cnc1CN1CCC(c2cccc(OCc3ccc(Cl)cc3F)n2)CC1` [Compound 105, 2-((4-chloro-2-fluorobenzyl)oxy)-6-(1-((1-methyl-5-(2H-tetrazol-5-yl)-1H-imidazol-2-yl)methyl)piperidin-4-yl)pyridine], the EC50 was found to be 59.2 nM.

Take `COCCn1c(/C=C/C(=O)O)cnc1CN1CCC(c2cccc(OCc3ccc(Cl)cc3F)n2)CC1` [Compound 106, (E)-3-(2-((4-(6-((4-Chloro-2-fluorobenzyl)oxy)pyridin-2-yl)piperidin-1-yl)methyl)-1-(2-methoxyethyl)-1H-imidazol-5-yl)acrylic acid]: the EC50 was 0.364 nM.

Turning to `O=C(O)CCc1cnc(CN2CCC(c3cccc(OCc4ccc(Cl)cc4F)n3)CC2)n1CC1CCC1` [Compound 107], the EC50 came out at 4.4 nM.

`Cn1c(C2CC2C(=O)O)cnc1CN1CCC(c2cccc(OCc3ccc(Cl)cc3F)n2)CC1` (stereo not drawn) [Compound 108, 2-(2-((4-(6-((4-chloro-2-fluorobenzyl)oxy)pyridin-2-yl)piperidin-1-yl)methyl)-1-methyl-1H-imidazol-5-yl)cyclopropanecarboxylic acid]: the concentration giving a half-maximal response (EC50) was 28.2 nM.

Regarding `Cn1c(/C=C\C(=O)O)cnc1CN1CCC(c2cccc(OCc3ccc(Cl)cc3F)n2)CC1` [Compound 109, (Z)-3-(2-((4-(6-((4-chloro-2-fluorobenzyl)oxy)pyridin-2-yl)piperidin-1-yl)methyl)-1-methyl-1H-imidazol-5-yl)acrylic acid], the EC50 stood at 86.4 nM.

For the compound `C/C(=C\c1cnc(CN2CCC(c3cccc(OCc4ccc(Cl)cc4F)n3)CC2)n1C)C(=O)O` [Compound 110, (E)-3-(2-((4-(6-((4-chloro-2-fluorobenzyl)oxy)pyridin-2-yl)piperidin-1-yl)methyl)-1-methyl-1H-imidazol-5-yl)-2-methylacrylic acid], the EC50 is 5.5 nM.

For `Cn1c(/C=C/C(=O)O)nnc1CN1CCC(c2cccc(OCc3ccc(Cl)cc3F)n2)CC1` [Compound 112, (E)-3-(5-((4-(6-((4-chloro-2-fluorobenzyl)oxy)pyridin-2-yl)piperidin-1-yl)methyl)-4-methyl-4H-1,2,4-triazol-3-yl)acrylic acid], the EC50 was determined as 2.01 nM.

On to `COCCn1c(C2CC2C(=O)O)cnc1CN1CCC(c2cccc(OCc3ccc(Cl)cc3F)n2)CC1` (stereo not drawn) [Compound 113], for which the EC50 amounted to 34.9 nM.

For the compound `O=C(O)C1CC1c1cnc(CN2CCC(c3cccc(OCc4ccc(Cl)cc4F)n3)CC2)n1C[C@@H]1CCO1` (stereo partly drawn) [Compound 114a, 2-(2-((4-(6-((4-chloro-2-fluorobenzyl)oxy)pyridin-2-yl)piperidin-1-yl)methyl)-1-(((S)-oxetan-2-yl)methyl)-1H-imidazol-5-yl)cyclopropane-1-carboxylic acid], the EC50 was 9.4 nM.

As to `C/C(=C\c1cnc(CN2CCC(c3cccc4c3OC[C@@H](c3ccc(Cl)cc3)O4)CC2)n1C[C@@H]1CCO1)C(=O)O` [Compound 115a, (E)-3-(2-((4-((R)-2-(4-chlorophenyl)-2,3-dihydrobenzo[b][1,4]dioxin-5-yl)piperidin-1-yl)methyl)-1-(((S)-oxetan-2-yl)methyl)-1H-imidazol-5-yl)-2-methylacrylic acid], the EC50 was determined as 3.2 nM.

On to `O=C(O)/C=C/c1cnc(CN2CCC(c3cccc4c3OC[C@@H](c3ccc(Cl)cc3)O4)CC2)n1C[C@@H]1CCO1` [Compound 116a, (E)-3-(2-((4-((R)-2-(4-Chlorophenyl)-2,3-dihydrobenzo[b][1,4]dioxin-5-yl)piperidin-1-yl)methyl)-1-(((S)-oxetan-2-yl)methyl)-1H-imidazol-5-yl)acrylic acid], for which the EC50 was 0.71 nM.

In the case of `Cc1cc(CCC(=O)O)cnc1CN1CCC(c2cccc(OCc3ccc(Cl)cc3F)n2)CC1` [Compound 117], the EC50 was determined as 3300 nM.

Consider `O=C(O)CCc1ccc(CN2CCC(c3cccc(OCc4ccc(Cl)cc4F)n3)CC2)nc1` [Compound 118, 3-(6-((4-(6-((4-chloro-2-fluorobenzyl)oxy)pyridin-2-yl)piperidin-1-yl)methyl)pyridin-3-yl)propanoic acid], for which the EC50 is more than 1000 nM.

With `O=C(O)COc1ccc(CN2CCC(c3cccc(OCc4ccc(Cl)cc4F)n3)CC2)nc1` [Compound 119, 2-((6-((4-(6-((4-chloro-2-fluorobenzyl)oxy)pyridin-2-yl)piperidin-1-yl)methyl)pyridin-3-yl)oxy)acetic acid], the EC50 stood at 1500 nM.

As to `Cc1cc(/C=C/C(=O)O)cnc1CN1CCC(c2cccc(OCc3ccc(Cl)cc3F)n2)CC1` [Compound 120, (E)-3-(6-((4-(6-((4-chloro-2-fluorobenzyl)oxy)pyridin-2-yl)piperidin-1-yl)methyl)-5-methylpyridin-3-yl)acrylic acid], the EC50 came out at 99 nM.

The term EC50 denotes the concentration at which the effect is half-maximal.
